Data as given in patent publication US8450308B2 (Vitae Pharmaceuticals, Inc., priority 2008, dated 2013).

These molecules were tested against T1, truncated human beta-secretase (residues 1-458, His6-tagged at the C-terminus) (Homo sapiens, UniProt P56817) (assay: BACE fluorescence quench assay). Settings: not given.
T1 construct: truncated human beta-secretase (residues 1-458, His6-tagged at the C-terminus); His6 (C); made in house; host or cells: insect cells D. melanogaster S2 (baculovirus expression system (so in the source))
T1 sequence (P56817 22-458): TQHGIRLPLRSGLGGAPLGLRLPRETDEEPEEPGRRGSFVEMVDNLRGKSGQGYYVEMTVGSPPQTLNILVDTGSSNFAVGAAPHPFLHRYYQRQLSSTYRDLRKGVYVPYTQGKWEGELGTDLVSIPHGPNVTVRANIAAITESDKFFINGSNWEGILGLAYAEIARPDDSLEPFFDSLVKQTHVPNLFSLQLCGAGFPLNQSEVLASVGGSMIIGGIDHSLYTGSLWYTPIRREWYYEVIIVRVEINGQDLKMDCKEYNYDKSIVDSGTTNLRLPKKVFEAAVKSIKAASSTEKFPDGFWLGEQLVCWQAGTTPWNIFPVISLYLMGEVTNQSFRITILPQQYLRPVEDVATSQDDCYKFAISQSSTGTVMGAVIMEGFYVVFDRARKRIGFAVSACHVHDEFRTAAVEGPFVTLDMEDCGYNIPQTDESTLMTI
Type: biochemical
Procedure: The assay was performed at room temperature in 96-well white opaque Optiplates aque Optiplates (PerkinElmer, Waltham, Mass.) in a total volume of 200 μl of the incubation mixture containing 50 mM sodium acetate buffer, pH 4.5, 0.4 μM FRET substrate, 2.4 nM enzyme, 5% DMSO, and 0.05% Brij-35. The tested compounds were serially diluted in DMSO and pre-incubated with the substrate. The reaction was started by addition of enzyme, and the progress of the reaction was followed by measuring fluorescence with an excitation wavelength of 480 nm and an emission wavelength of 520 nm. Ten measurements were taken every 5-10 min, and the intensity of fluorescence was regressed against time in order to derive velocities of reaction in all 96 wells. […] IC50 values were calculated by fitting percent inhibition vs. inhibitor concentration into a four-parametric logistic model using XLFit software (IDBS, Guildford, UK).
For `CN1C(=O)C2(CC(c3ccccc3)Oc3ccc(-c4ccc(C(F)(F)F)cc4)cc32)N=C1N` (stereo not drawn) [Compound 56, 2′-amino-1′-methyl-2-phenyl-6-(4-(trifluoromethyl)phenyl)spiro[chroman-4,4′-imidazol]-5′(1′H)-one], the IC50 was 10 to 50 µM. For `CN1C(=O)C2(CC(c3ccccc3)Oc3ccc(-c4ccc(CNS(C)(=O)=O)cc4)cc32)N=C1N` (stereo not drawn) [Compound 62, N-(4-(2′-amino-1′-methyl-5′-oxo-2-phenyl-1′,5′-dihydrospiro[chroman-4,4′-imidazole]-6-yl)benzyl)methanesulfonamide], the IC50 was 10 to 50 µM. For `CN1C(=O)C2(CC(c3ccccc3)Oc3ccc(-c4ccc(S(=O)(=O)N(C)C)cc4)cc32)N=C1N` (stereo not drawn) [Compound 65, 4-(2′-amino-1′-methyl-5′-oxo-2-phenyl-1′,5′-dihydrospiro[chroman-4,4′-imidazole]-6-yl)-N,N-dimethylbenzenesulfonamide], the IC50 was 10 to 50 µM. `CN1C(=O)C2(CC(c3ccccc3)Oc3ccc(-c4cccc(S(=O)(=O)N(C)C)c4)cc32)N=C1N` (stereo not drawn) [Compound 45, 3-(2′-amino-1′-methyl-5′-oxo-2-phenyl-1′,5′-dihydrospiro[chroman-4,4′-imidazole]-6-yl)-N,N-dimethylbenzenesulfonamide] was tested, and the IC50 was 5 to 10 µM. For `CN1C(=O)[C@@]2(C[C@H](c3ccccc3)Oc3ccc(Br)cc32)N=C1N` (racemic) [Compound 44a, Trans-2′-amino-6-bromo-1′-methyl-2-phenylspiro[chroman-4,4′-imidazol]-5′(1′H)-one], the IC50 was 5 to 10 µM. Work on `CN1C(=O)C2(CC(c3ccccc3)Oc3ccc(-c4ccccc4C#N)cc32)N=C1N` (stereo not drawn) [Compound 35, 2-(2′-amino-1′-methyl-5′-oxo-2-phenyl-1′,5′-dihydrospiro[chroman-4,4′-imidazole]-6-yl)benzonitrile] yielded an IC50 of 1 to 5 µM. In the case of `CN1C(=O)[C@@]2(C[C@@H](c3ccccc3)Oc3ccc(Br)cc32)N=C1N` (relative stereo) [Compound 44b, Cis-2′-amino-6-bromo-1′-methyl-2-phenylspiro[chroman-4,4′-imidazol]-5′(1′H)-one], the IC50 is reported as 5 to 10 µM.

Same assay, conditions: in vitro enzyme activity, BACE fluorescence assay, pH 4.5; read-out: IC50
Molecule `Cc1ccc(C#N)cc1-c1ccc2c(c1)[C@]1(C[C@@H](C3CCOC(C)(C)C3)O2)N=C(N)N(C)C1=O` (stereo partly drawn) [Compound 437] has an IC50 of 5 to 10 µM. With `CN1OC2(CC(C3CCOC(C)(C)C3)Oc3ccc(-c4cc(C#N)ccc4C(F)(F)F)cc32)N=C1N` (stereo not drawn) [Compound 354] the IC50 was 0.5 to 1 µM. Work on `CN1OC2(CC(c3cccnc3)Oc3ccc(-c4cccc(C#N)c4)cc32)N=C1N` (stereo not drawn) [Compound 95, 3-(3′-amino-2′-methyl-2-(pyridine-3-yl)-2′H-spiro[chroman-4,5′-[1,2,4]-oxadiazole]-6-yl)benzonitrile] yielded an IC50 of 1 to 5 µM. In the case of `CC(C)=C[C@H](CCO)[C@@H]1C[C@@]2(N=C(N)N(C)O2)c2cc(-c3cc(F)cc(F)c3)ccc2O1` [Compound 419], the IC50 is reported as 1 to 5 µM. Molecule `CC1CCC2(CC1)CC1(N=C(N)N(C)C1=O)c1cc(-c3cccc(C#N)c3)ccc1O2` (stereo not drawn) [Compound 75] has an IC50 of 0.1 to 0.5 µM. With `CN1OC2(CC(c3ccccn3)Oc3ccc(-c4cccc(C#N)c4)cc32)N=C1N` (stereo not drawn) [Compound 106, 3-(3′-amino-2′-methyl-2-(pyridin-2-yl)-2′H-spiro[chroman-4,5′-[1,2,4]oxadiazole]-6-yl)benzonitrile] the IC50 was 5 to 10 µM. Work on `CN1OC2(CC3(Cc4ccccc4C3)Oc3ccc(-c4cccc(C#N)c4)cc32)N=C1N` (stereo not drawn) [Compound 315] yielded an IC50 of 0.1 to 0.5 µM. `CC(C)=CC(CCO)C1CC2(N=C(N)N(C)O2)c2cc(-c3cc(C#N)ccc3F)ccc2O1` (stereo not drawn) [Compound 391] gave an IC50 of 1 to 5 µM. With `CN1OC2(CC(c3ccccc3)Oc3ccc(-c4cccc(C#N)c4)cc32)N=C1N` (stereo not drawn) [Compound 96, 3-(3′-amino-2′-methyl-2-phenyl-2′H-spiro[chroman-4,5′-[1,2,4]oxadiazole]-6-yl)benzonitrile] the IC50 was 1 to 5 µM. Molecule `CN1OC2(CC(c3ccccc3)Oc3ccc(-c4cccnc4)cc32)N=C1N` (stereo not drawn) [Compound 102, 2′-methyl-2-phenyl-6-(pyridin-3-yl)-2′H-spiro[chroman-4,5′-[1,2,4]oxadiazol]-3′-amine] has an IC50 of 1 to 5 µM. For `CN1OC2(CC(c3ccc(OC(F)(F)F)cc3)Oc3ccc(-c4cccc(C#N)c4)cc32)N=C1N` (stereo not drawn) [Compound 107, 3-(3′-amino-2′-methyl-2-(4-(trifluoromethoxy)phenyl)-2′H-spiro[chroman-4,5′-[1,2,4]oxadiazole]-6-yl)benzonitrile], the IC50 was 10 to 50 µM. For `N#Cc1cccc(-c2ccc3c(c2)C2(CC(c4ccccc4)O3)N=C(N)N(CCC3CC3)C2=O)c1` (stereo not drawn) [Compound 10], the IC50 was 0.1 to 0.5 µM. Molecule `CN1C(=O)C2(CC(C3CCOC(C)(C)C3)Oc3ccc(-c4ccc(F)c(F)c4)cc32)N=C1N` (stereo not drawn) [Compound 431] has an IC50 of 1 to 5 µM. For `NC1=NC2(CC(c3ccccc3)Oc3ccc(Br)cc32)C(=O)N1CCC1CC1` (stereo not drawn) [Compound 59, 2′-amino-6-bromo-1′-(2-cyclopropylethyl)-2-phenylspiro[chroman-4,4′-imidazol]-5′(1′H)-one], the IC50 was 10 to 50 µM. With `Cc1cccc(-c2ccc3c(c2)C2(CC(C4CCOC(C)(C)C4)O3)N=C(N)N(C)O2)c1F` (stereo not drawn) [Compound 363] the IC50 was 0.5 to 1 µM. For `CN1OC2(C[C@H]([C@@H]3CCOC(C)(C)C3)Oc3ccc(-c4ccc(F)c(F)c4)cc32)N=C1N` (stereo partly drawn) [Compound 362], the IC50 was 0.5 to 1 µM. For `CCC1CCC2(C1)CC1(N=C(N)N(C)C1=O)c1cc(-c3cccc(C#N)c3)ccc1O2` (stereo not drawn) [Compound 73], the IC50 was 0.1 to 0.5 µM. `CN1C(=O)[C@@]2(C[C@@]3(CCCOC3)Oc3ccc(-c4cccc(C#N)n4)cc32)N=C1N` [Compound 446] gave an IC50 of 5 to 10 µM. `CN1OC2(CC(C3CCCOC3)Oc3ccc(-c4cccc(F)c4)cc32)N=C1N` (stereo not drawn) [Compound 93, 6-(3-fluorophenyl)-2′-methyl-2-(tetrahydro-2H-pyran-3-yl)-2′H-spiro[chroman-4,5′-[1,2,4]oxadiazol]-3′-amine] showed an IC50 of 0.5 to 1 µM. In the case of `CN1C(=O)C2(CC3(CCCC(C(F)(F)F)C3)Oc3ccc(-c4cccc(C#N)c4)cc32)N=C1N` (stereo not drawn) [Compound 81], the IC50 is reported as 1 to 5 µM. Molecule `CC(C)=CC(CCO)[C@H]1C[C@@]2(N=C(N)N(C)O2)c2cc(-c3cccc(C(F)(F)F)c3)ccc2O1` (stereo partly drawn) [Compound 442] has an IC50 of 5 to 10 µM. In the case of `COc1ccc(-c2ccc3c(c2)[C@]2(C[C@]4(CCCOC4)O3)N=C(N)N(C)C2=O)cc1OC` [Compound 428], the IC50 is reported as 1 to 5 µM. `CN1OC2(CC(c3ccncc3)Oc3ccc(-c4cccc(C#N)c4)cc32)N=C1N` (stereo not drawn) [Compound 105, 3-(3′-amino-2′-methyl-2-(pyridin-4-yl)-2′H-spiro[chroman-4,5′-[1,2,4]oxadiazole]-6-yl)benzonitrile] showed an IC50 of 5 to 10 µM. `COc1cccc(-c2ccc3c(c2)C2(CC(C4CCCOC4)O3)N=C(N)N(C)O2)c1F` (stereo not drawn) [Compound 92] gave an IC50 of 0.1 to 0.5 µM. Work on `CC(C)=CC(CCO)[C@@H]1C[C@@]2(N=C(N)N(C)O2)c2cc(-c3cccc(C(F)(F)F)c3)ccc2O1` (stereo partly drawn) [Compound 450] yielded an IC50 of 10 to 50 µM. With `CN1C(=O)C2(C[C@]3(CCCOC3)Oc3ccc(-c4cccc(Br)c4)cc32)N=C1N` (stereo partly drawn) [Compound 318] the IC50 was 0.1 to 0.5 µM. In the case of `CN1OC2(CC(C3CCOC(C)(C)C3)Oc3ccc(-c4cccc(C#N)n4)cc32)N=C1N` (stereo not drawn) [Compound 406], the IC50 is reported as 1 to 5 µM. `CN1C(=O)C2(CC(c3cccnc3)Oc3ccc(-c4cccc(C#N)c4)cc32)N=C1N` (stereo not drawn) [Compound 31] was tested, and the IC50 was 1 to 5 µM. Molecule `CN1OC2(CC(C3CCOC(C)(C)C3)Oc3ccc(-c4cc(F)cc(F)c4F)cc32)N=C1N` (stereo not drawn) [Compound 344] has an IC50 of 0.1 to 0.5 µM. In the case of `CN1C(=O)[C@@]2(C[C@@H](c3ccccc3)Oc3ccc(-c4cccc(C#N)c4)cc32)N=C1N` [Compound 2b], the IC50 is reported as 0.001 to 0.1 µM. `CN1OC2(CC3(CCOC(C)(C)C3)Oc3ccc(-c4cccc(C#N)c4)cc32)N=C1N` (stereo not drawn) [Compound 396] gave an IC50 of 1 to 5 µM. In the case of `CN1OC2(C[C@]3(CCCC4CCCCC43)Oc3ccc(-c4cccc(C#N)c4)cc32)N=C1N` (stereo partly drawn) [Compound 394], the IC50 is reported as 1 to 5 µM. Work on `CSc1cccc(-c2ccc3c(c2)[C@]2(C[C@]4(CCCOC4)O3)N=C(N)N(C)C2=O)c1` [Compound 296] yielded an IC50 of 0.1 to 0.5 µM. `CN1C(=O)C2(CC3(CCCOC3)Oc3ccc(-c4cc(CO)ccc4F)cc32)N=C1N` (stereo not drawn) [Compound 395] gave an IC50 of 1 to 5 µM. `CC1CCC2(C1)CC1(N=C(N)N(C)C1=O)c1cc(-c3cccc(C#N)c3)ccc1O2` (stereo not drawn) [Compound 74] gave an IC50 of 0.1 to 0.5 µM. In the case of `CN1OC2(C[C@@H](C3CCCOC3)Oc3ccc(-c4cccnc4F)cc32)N=C1N` (stereo partly drawn) [Compound 89a], the IC50 is reported as 0.1 to 0.5 µM. Work on `CN1C(=O)C2(CC3(CCCOC3)Oc3ccc(-c4cccc(C#N)c4F)cc32)N=C1N` (stereo not drawn) [Compound 291] yielded an IC50 of 0.1 to 0.5 µM. In the case of `CN1OC2(CC(C3CCOC3)Oc3ccc(-c4cccc(C#N)c4)cc32)N=C1N` (stereo not drawn) [Compound 94], the IC50 is reported as 0.5 to 1 µM. `CN1OCC2(CC3(CCCOC3)Oc3ccc(-c4cccc(C#N)c4)cc32)N=C1N` (stereo not drawn) [Compound 455, 3-(spiro[spiro[chroman-2,1′-(3-oxacyclohexane)]-4,5′-(3-amino-2-methyl-2,6-dihydro-[1,2,4]oxadiazine)]-6-yl)benzonitrile] gave an IC50 of 10 to 50 µM. Work on `CN1C(=O)[C@@]2(C[C@@]3(CCCOC3)Oc3ccc(-c4cccc(OC(F)(F)F)c4)cc32)N=C1N` [Compound 357] yielded an IC50 of 0.5 to 1 µM. `CN1C(=O)[C@@]2(C[C@]3(CCCOC3)Oc3ccc(-c4cccc(C#N)c4)cc32)N=C1N` [Compound 72a] showed an IC50 of 0.001 to 0.1 µM. In the case of `CN1C(=O)C2(CC(C3CCOC(C)(C)C3)Oc3ccc(-c4cc(F)cc(F)c4)cc32)N=C1N` (stereo not drawn) [Compound 372], the IC50 is reported as 0.5 to 1 µM. In the case of `CCCOc1cccc(-c2ccc3c(c2)C2(CC4(CCCOC4)O3)N=C(N)N(C)O2)c1` (stereo not drawn) [Compound 126], the IC50 is reported as 5 to 10 µM. In the case of `CN1OC2(CC3(CCCOC3)Oc3ccc(-c4cccc(F)c4)cc32)N=C1N` (stereo not drawn) [Compound 119], the IC50 is reported as 1 to 5 µM.
